Measured values published in article PMC9848256 (Journal of Enzyme Inhibition and Medicinal Chemistry, 2023).

Assay: in vivo
Conditions: male, SD, rat, iv, 1 mg/kg
Protocol: The preliminary pharmacokinetic study was conducted in male SD rats. Two groups with three mice each were set by random. […] The liquid chromatography tandem mass spectrometry (LC-MS/MS) method was pre-built. The system consisted of LC-20AD High Performance Liquid Chromatography (Shimazu, Japan) with Venusil C18 Plus column (2.1*50 mm, 5.0 μm, Agela, USA) and API 4000 mass spectrometry (AB, USA). […] In the LC method, mobile phase A was distilled water and mobile phase B was acetonitrile. The rinse port wash solution was methanol. The flow rate was 0.700 ml/min and the initial back pressure was 8.9 Mpa. […] The subsequent calculation was under a non-compartmental model statistical moment method with WinNonlin 7.0 software (USA).
Two modes of administration were applied. One was the intragastric injection (i.g., or “PO” for “per os”) at a dosage (D) of 3.0 mg/kg, while the other was the intravenous injection (i.v., or “IV”) at a dosage of 1.0 mg/kg.

Question: What does the source list for `CCCCS(=O)(=O)Oc1ccc(/C=C/C(=O)Nc2cccc(Br)c2)cc1` [Spartinin C10, (E)-4–(3-((3-bromophenyl)amino)-3-oxoprop-1-en-1-yl)phenylbutane-1-sulphonate]?
Answer: AUC(0-inf): 184 ± 74.4 ng·h/mL; AUC(0-t): 159 ± 65 ng·h/mL; Cmax: 284 ± 270 ng/mL; Tmax: 5 min; half-life: 32.3 ± 13.7 min
